These results are taken from patent US20240000946A1, “CARBONIC ANHYDRASE INHIBITORS SYNTHESIZED ON INTERCONNECTING LINKER CHAINS” (VILNIUS UNIVERSITY, priority 2020, published 2024).

Where only a bound is given, the exact number is not on record here.

The target in one experiment is T1, human recombinant CA I (Homo sapiens, UniProt P00915).
T1 construct: recombinant human carbonic anhydrase catalytic domains using the fluorescent thermal shift assay; made in house
Briefly: Fluorescent thermal shift assay (FTSA), CA I. The format is binding. As to conditions: 37° C., pH 7.0.

Another experiment deals with T2, human recombinant CA II (Homo sapiens, UniProt P00918).
T2 construct: recombinant human carbonic anhydrase catalytic domains using the fluorescent thermal shift assay; made in house
The experiment is described as follows: Fluorescent thermal shift assay (FTSA), CA II. The class given is binding. Particulars: 37° C., pH 7.0.

The target in a further experiment is T3, human recombinant CA III (Homo sapiens, UniProt P07451).
T3 construct: recombinant human carbonic anhydrase catalytic domains using the fluorescent thermal shift assay; made in house
T3 sequence (P07451 3-259 limits assumed): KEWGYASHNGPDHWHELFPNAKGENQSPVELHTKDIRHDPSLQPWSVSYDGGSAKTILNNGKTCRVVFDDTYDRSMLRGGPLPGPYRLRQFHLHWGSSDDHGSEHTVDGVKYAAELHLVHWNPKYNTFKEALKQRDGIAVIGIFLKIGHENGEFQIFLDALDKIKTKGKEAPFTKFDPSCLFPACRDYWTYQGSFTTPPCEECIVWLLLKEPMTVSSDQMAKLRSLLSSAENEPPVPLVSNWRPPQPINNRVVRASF
The experiment is described as follows: Fluorescent thermal shift assay (FTSA), CA III. The class given is binding. As to conditions: 37° C., pH 7.0.

A further experiment concerns the target T4, human recombinant CA IV (Homo sapiens, UniProt P22748).
T4 construct: recombinant human carbonic anhydrase catalytic domains using the fluorescent thermal shift assay; made in house
Briefly: Fluorescent thermal shift assay (FTSA), CA IV. The class given is binding. Particulars: 37° C., pH 7.0.

The next experiment addresses T5, human recombinant CA VA (Homo sapiens, UniProt P35218).
T5 construct: recombinant human carbonic anhydrase catalytic domains using the fluorescent thermal shift assay; made in house
The experiment is described as follows: Fluorescent thermal shift assay (FTSA), CA VA. Particulars: 37° C., pH 7.0. The format is binding.

The next experiment concerns the target T6, human recombinant CA VB (Homo sapiens, UniProt Q9Y2D0).
T6 construct: recombinant human carbonic anhydrase catalytic domains using the fluorescent thermal shift assay; made in house
The experiment is described as follows: Fluorescent thermal shift assay (FTSA), CA VB. The format is binding. Particulars: 37° C., pH 7.0.

A further experiment addresses T7, human recombinant CA VII (Homo sapiens, UniProt P43166).
T7 construct: recombinant human carbonic anhydrase catalytic domains using the fluorescent thermal shift assay; made in house
Briefly: Fluorescent thermal shift assay (FTSA), CA VII. The format is binding. Particulars: 37° C., pH 7.0.

In a further experiment the target is T8, human recombinant CA IX (Homo sapiens, UniProt Q16790).
T8 construct: recombinant human carbonic anhydrase catalytic domains using the fluorescent thermal shift assay; made in house
The experiment is described as follows: Fluorescent thermal shift assay (FTSA), CA IX. The class given is binding. Particulars: 37° C., pH 7.0.

In the next experiment the target is T9, human recombinant CA XII (Homo sapiens, UniProt O43570).
T9 construct: recombinant human carbonic anhydrase catalytic domains using the fluorescent thermal shift assay; made in house
T9 sequence (O43570 30-289 limits assumed): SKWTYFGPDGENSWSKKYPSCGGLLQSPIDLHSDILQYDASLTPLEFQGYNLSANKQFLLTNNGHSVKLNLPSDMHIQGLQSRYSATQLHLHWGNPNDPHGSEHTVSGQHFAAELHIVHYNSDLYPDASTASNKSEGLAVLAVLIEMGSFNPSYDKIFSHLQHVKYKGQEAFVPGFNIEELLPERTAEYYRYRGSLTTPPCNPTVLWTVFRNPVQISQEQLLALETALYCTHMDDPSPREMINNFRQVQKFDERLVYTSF
Briefly: Fluorescent thermal shift assay (FTSA), CA XII. Particulars: 37° C., pH 7.0. The format is binding.

For experiment [1], the target named is T10, human recombinant CA XIII (Homo sapiens, UniProt Q8N1Q1).
T10 construct: recombinant human carbonic anhydrase catalytic domains using the fluorescent thermal shift assay; made in house
T10 sequence (Q8N1Q1 4-261 limits assumed): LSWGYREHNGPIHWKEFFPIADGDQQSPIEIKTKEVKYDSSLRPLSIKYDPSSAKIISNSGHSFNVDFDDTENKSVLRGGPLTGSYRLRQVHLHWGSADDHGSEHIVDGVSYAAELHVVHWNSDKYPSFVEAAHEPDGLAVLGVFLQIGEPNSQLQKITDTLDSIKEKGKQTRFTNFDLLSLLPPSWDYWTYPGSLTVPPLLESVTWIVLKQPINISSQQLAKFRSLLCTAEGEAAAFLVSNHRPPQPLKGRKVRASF
Briefly: Fluorescent thermal shift assay (FTSA), CA XIII. The class given is binding. As to conditions: 37° C., pH 7.0.
Protocol: (§1) The protein solution in the absence and presence of various compound concentrations was heated from 25 to 99° C. (heating rate 1° C./min). The melting temperature Tm shift was determined by following the fluorescence of 8-anilino-1-naphthalene sulfonate (ANS). The samples consisted of 5 μM protein (except 10 μM for CA IV), different concentrations of compound (usually 0-200 μM), 50 μM ANS and 50 mM sodium phosphate buffer (at pH 7.0) containing 100 mM sodium chloride and 2% (v/v) of DMSO. Compound binding constant was obtained from protein Tm as a function of the added ligand concentration. Data analysis was performed, and the curves were fit so that the binding constant is determined for 37° C.

A further experiment addresses T11, human recombinant CA XIV (Homo sapiens, UniProt Q9ULX7).
T11 construct: recombinant human carbonic anhydrase catalytic domains using the fluorescent thermal shift assay; made in house
Briefly: Fluorescent thermal shift assay (FTSA), CA XIV. The class given is binding. As to conditions: 37° C., pH 7.0.

Another experiment deals with T12, carbonic anhydrase IX (Homo sapiens, UniProt Q16790).
T12 construct: made in house
The experiment is described as follows: Inhibition of CA enzymatic (CO2 hydratase) activity. The format is biochemical. Here is the method: The inhibition of hydratase activity of carbonic anhydrase I, II, and IX was performed using Applied Photophysics SX.18 MV-R instrument at 24° C. Theaturated substrate solution was prepared by bubbling carbon dioxide gas into Milly-Q water for 1 hour at room temperature. Phenol red was used as a pH indicator to follow the absorbance (A-557 nm) while CA acidified the medium. […] Raw curves were fitted using a single exponential model, and the dissociation constants were determined using the Morrison equation: […]
Where [CA] is a total added concentration of active CA, [I]—total added inhibitor concentration, and Kd is inhibitor binding affinity.

Another experiment has as its system HeLa cancer cell culture. Briefly: Acidification of extracellular medium by hypoxic HeLa cell culture. As to conditions: 1 μM compound. The class given is cell-based, human. Here is the method:
FIG. 6. HeLa cancer cell culture grown for 48 hours under hypoxic (1% O2) conditions caused acidification of extracellular medium as visualized by pH drop from initial pH 7.74 (shown as a dashed bold line) to pH 6.35.

The target of the next experiment is T13, human recombinant CA VI (Homo sapiens, UniProt P23280).
T13 construct: recombinant human carbonic anhydrase catalytic domains using the fluorescent thermal shift assay; made in house
T13 sequence (P23280 21-278 limits assumed): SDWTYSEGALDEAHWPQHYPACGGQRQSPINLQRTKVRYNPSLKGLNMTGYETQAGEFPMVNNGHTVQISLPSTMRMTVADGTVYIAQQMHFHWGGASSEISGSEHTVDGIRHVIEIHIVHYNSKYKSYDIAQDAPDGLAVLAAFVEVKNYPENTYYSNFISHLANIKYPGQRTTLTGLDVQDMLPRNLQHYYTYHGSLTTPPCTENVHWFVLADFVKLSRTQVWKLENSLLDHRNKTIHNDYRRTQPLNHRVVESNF
The experiment is described as follows: Fluorescent thermal shift assay (FTSA), CA VI. Particulars: 37° C., pH 7.0. The format is binding.

T7 sequence (P43166 5-262 limits assumed): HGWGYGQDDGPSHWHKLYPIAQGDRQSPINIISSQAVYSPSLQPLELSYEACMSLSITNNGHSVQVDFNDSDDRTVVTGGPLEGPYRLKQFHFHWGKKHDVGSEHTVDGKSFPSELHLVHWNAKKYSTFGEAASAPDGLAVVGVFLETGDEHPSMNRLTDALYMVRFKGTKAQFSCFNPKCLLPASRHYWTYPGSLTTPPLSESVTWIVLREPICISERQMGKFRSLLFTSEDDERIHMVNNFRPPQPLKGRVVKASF
T1 sequence (P00915 4-261 limits assumed): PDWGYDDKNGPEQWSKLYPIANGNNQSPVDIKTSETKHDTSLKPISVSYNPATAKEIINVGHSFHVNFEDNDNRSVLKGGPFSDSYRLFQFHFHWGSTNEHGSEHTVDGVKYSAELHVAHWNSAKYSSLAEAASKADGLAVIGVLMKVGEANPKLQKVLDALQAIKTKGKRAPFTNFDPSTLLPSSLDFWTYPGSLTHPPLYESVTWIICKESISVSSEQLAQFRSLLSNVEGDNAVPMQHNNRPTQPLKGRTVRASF
T5 sequence (P35218 39-296 limits assumed): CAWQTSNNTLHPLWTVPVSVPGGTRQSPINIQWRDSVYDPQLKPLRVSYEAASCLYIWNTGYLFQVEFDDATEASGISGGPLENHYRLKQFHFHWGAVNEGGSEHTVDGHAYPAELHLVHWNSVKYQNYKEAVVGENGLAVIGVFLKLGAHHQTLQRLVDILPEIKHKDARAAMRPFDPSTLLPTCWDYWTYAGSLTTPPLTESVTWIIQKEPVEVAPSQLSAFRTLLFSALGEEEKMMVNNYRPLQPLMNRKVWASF
T6 sequence (Q9Y2D0 37-296 limits assumed): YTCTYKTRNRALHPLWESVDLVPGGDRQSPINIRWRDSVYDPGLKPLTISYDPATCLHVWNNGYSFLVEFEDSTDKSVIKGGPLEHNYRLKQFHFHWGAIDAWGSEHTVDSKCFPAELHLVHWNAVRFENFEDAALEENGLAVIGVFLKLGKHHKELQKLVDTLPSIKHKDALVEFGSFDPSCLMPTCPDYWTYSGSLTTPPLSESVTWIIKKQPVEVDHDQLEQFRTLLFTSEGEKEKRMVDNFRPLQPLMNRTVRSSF
T4 sequence (P22748 21-285 limits assumed): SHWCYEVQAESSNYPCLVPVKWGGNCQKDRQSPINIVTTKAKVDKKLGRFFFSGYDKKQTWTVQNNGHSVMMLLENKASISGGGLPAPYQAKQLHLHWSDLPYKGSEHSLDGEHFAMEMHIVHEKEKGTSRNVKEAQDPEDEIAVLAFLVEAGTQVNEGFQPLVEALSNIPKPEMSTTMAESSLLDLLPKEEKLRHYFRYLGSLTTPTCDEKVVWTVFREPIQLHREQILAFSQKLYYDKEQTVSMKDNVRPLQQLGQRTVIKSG
T11 sequence (Q9ULX7 20-278 limits assumed): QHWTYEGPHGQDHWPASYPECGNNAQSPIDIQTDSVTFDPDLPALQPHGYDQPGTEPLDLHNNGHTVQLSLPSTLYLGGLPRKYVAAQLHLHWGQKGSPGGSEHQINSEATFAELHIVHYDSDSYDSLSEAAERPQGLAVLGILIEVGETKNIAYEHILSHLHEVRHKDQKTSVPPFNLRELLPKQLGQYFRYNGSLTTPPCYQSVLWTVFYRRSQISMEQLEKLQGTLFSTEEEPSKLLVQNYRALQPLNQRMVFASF
Protocol for human recombinant CA III: as §1
Protocol for human recombinant CA IV: as §1
Protocol for human recombinant CA IX: as §1
Protocol for human recombinant CA VA: as §1
Protocol for human recombinant CA VB: as §1
Protocol for human recombinant CA VII: as §1
Protocol for human recombinant CA XIV: as §1

On to `NS(=O)(=O)c1c(F)c(F)c(S(=O)(=O)CCNC(=O)CCOCCOCCOCCOCCOCCOCCOCCOCCOCCOCCOCCOCCOCCC(=O)NCCS(=O)(=O)c2c(F)c(F)c(S(N)(=O)=O)c(F)c2NC2CCCCCCC2)c(NC2CCCCCCC2)c1F` [AZ19-3-2, N-[2-[2-(cyclooctylamino)-3,5,6-trifluoro-4-sulfamoyl-phenyl]sulfonylethyl]-3-[2-[2-[2-[2-[2-[2-[2-[2-[2-[2-[2-[2-[3-[2-[2-(cyclooctylamino)-3,5,6-trifluoro-4-sulfamoyl-phenyl]sulfonylethylamino]-3-oxo-propoxy]ethoxy]ethoxy]ethoxy]ethoxy]ethoxy]ethoxy]ethoxy]ethoxy]ethoxy]ethoxy]ethoxy]ethoxy]propanamide], for which the Kd on human recombinant CA I is 3300 nM; at human recombinant CA II it was 100 nM; on human recombinant CA III it was at least 200000 nM; on human recombinant CA IV, 250 nM; on human recombinant CA VA it was 3000 nM; on human recombinant CA VB, 70 nM. Moreover, the Kd at human recombinant CA VII is 330 nM; at human recombinant CA IX, 0.015 nM; on human recombinant CA XII, 20 nM; in experiment [1], 2 nM; on human recombinant CA XIV, 8.3 nM; at carbonic anhydrase IX (read-out: Real affinity for CA IX as bounded by enzymatic inhibition), under 10 nM. Further, the IC50 on carbonic anhydrase IX (50 nM enzyme CA IX, compound titrates the enzyme, read-out: Compound concentration at 50% remaining activity of CA IX) is about 10 nM. Further, the “Inhibition of acidification at 1 μM” value with HeLa cancer cell culture is recorded as “mostly inhibited”.
Take `NS(=O)(=O)c1c(F)c(F)c(S(=O)(=O)CCNC(=O)CCOCCOCCOCCOCCOCCOCCOCCOCCOCCOCCOCCOCCOCCC(=O)O)c(NC2CCCCCCC2)c1F` [AZ19-3-1, 3-[2-[2-[2-[2-[2-[2-[2-[2-[2-[2-[2-[2-[3-[2-[2-(cyclooctylamino)-3,5,6-trifluoro-4-sulfamoyl-phenyl]sulfonylethylamino]-3-oxo-propoxy]ethoxy]ethoxy]ethoxy]ethoxy]ethoxy]ethoxy]ethoxy]ethoxy]ethoxy]ethoxy]ethoxy]ethoxy]propanoic acid]: the Kd on human recombinant CA I was 10000 nM; on human recombinant CA II, 250 nM; at human recombinant CA III it was at least 200000 nM; on human recombinant CA IV, 1000 nM; at human recombinant CA VA, 10000 nM; on human recombinant CA VB, 70 nM. Moreover, the Kd at human recombinant CA VI came to 500 nM; at human recombinant CA VII, 50 nM; on human recombinant CA IX it was 0.05 nM; on human recombinant CA XII, 20 nM; in experiment [1], 20 nM; at human recombinant CA XIV, 10 nM.
In the case of `NS(=O)(=O)c1c(F)c(F)c(S(=O)(=O)CCNC(=O)CCOCCOCCOCCOCCOCCOCCOCCOCCOCCOCCOCCOCCNC(=O)CCCCC2SCC3NC(=O)NC32)c(NC2CCCCCCC2)c1F` (centres unmarked) [AZ19-1, N-[2-[2-[2-[2-[2-[2-[2-[2-[2-[2-[2-[2-[3-[2-[2-(cyclooctylamino)-3,5,6-trifluoro-4-sulfamoyl-phenyl]sulfonylmethylamine]-3-oxo-propoxy]ethoxy]ethoxy]ethoxy]ethoxy]ethoxy]ethoxy]ethoxy]ethoxy]ethoxy]ethoxy]ethoxy]ethyl]-5-(2-oxo-1,3,3a,4,6,6a-hexahydrothieno[3,4-d]imidazol-4-yl)pentanamide], the Kd is 10000 nM at human recombinant CA I; 450 nM on human recombinant CA II; at least 200000 nM at human recombinant CA III; 1000 nM at human recombinant CA IV; 7100 nM at human recombinant CA VA; 83 nM at human recombinant CA VB. Further, the Kd on human recombinant CA VI was determined as 980 nM; on human recombinant CA VII, 150 nM; on human recombinant CA IX, 0.1 nM; on human recombinant CA XII, 50 nM; in experiment [1], 50 nM; at human recombinant CA XIV, 27 nM.
